# Test results reported in patent US9937154B2, “Use of telmisartan to prevent and treat graft versus host disease and other alloimmune and autoimmune diseases” (Hackensack University Medical Center, priority 2015, dated 2018).
# Where two headings read alike, the source gives them in different places.
# Legend:
# [1] = system: animal models of subarachnoid hemorrhage (SAH); settings: cited from earlier work
# [2] = system: C3B6 mice (GVHD model); experiment: GVHD survival in irradiated C3B6 F1 mice given ATBM and donor T cells; settings: ATBM + T cells + Fasudil i.p. and p.o., n = 26
# [3] = system: C3B6 mice (GVHD model); experiment: GVHD-associated skin inflammation in C3B6 mice; assay type: in vivo, mouse; settings: ATBM+T cells+Fasudil recipient mice
# Description: Skin is most commonly affected and usually the first organ involved in GVHD. Ferrara J L M, et al., Lancet. 373(9674): 1550-1561 (2009). In this study, C3B6 mice were used to determine the effect of ROCK inhibitors on GVHD-associated skin inflammation.
# C3B6 mice were treated according to Example 1. […] . Skin inflammation in C3B6 treated mice occurred in the fourth week and gradually waned over a two week-period.
# [4] = system: responding splenocytes from C3B6 hosts; experiment: mouse IFN-γ ELISPOT after one-way mixed lymphocyte reaction of host splenocytes; assay type: cell-based
# Description: Classically, a MLR is carried out by co-incubating lymphocytes from two strains that differ in histocompatibility genes for several days, and the proliferative response of T cells of one lymphocyte population to histocompatibility antigens of the other then measured.
# Secretion of IFN-γ by responder cells in a MLR was used as an indicator of cytotoxic T lymphocyte function (i.e., alloreactivity). Briefly, spleens from C3B6 mice treated according to Example 1 were harvested at day 10 (C3H donor T cells migrating to the spleen with few de novo generated T cells emigrating from the host thymus) or at day 84 (spleens containing newly generated T cells maturing within the host thymus; i.e., allotolerant of host B6 parental antigens) post-transplant for use as responders. Spleens from C3H, C3B6 and DBA mice (Jackson Laboratory) were harvested for use as stimulators. Spleens were homogenized and the cells were washed twice with Phosphate Buffered Saline (PBS) (Sigma Aldrich, St. Louis, Mo., Catalog No. P5493, or equivalent). Red blood cells were separated from lymphocytes using Ficoll®. Briefly, cells were transferred to 50 mL conical tubes containing 15 mL of Ficoll®-Paque PLUS (GE Healthcare, Waukesha, Wis., Catalog No. 17-1440-03) and centrifuged at 800 rcf (1,900-2,000 rpm) for 20 minutes with centrifuge break off. After centrifugation, the buffy coat layer (containing lymphocytes) was removed and transferred to a new 50 mL conical tube. Phosphate-buffered saline (PBS) without calcium and magnesium (Gibco, Life Technologies, Carlsbad, Calif., Catalog No. 10010-023 or equivalent) was added to the buffy coat layer so that the total volume in the conical tube is equal to 50 mL. The buffy coat layer in PBS was centrifuged at 250 rcf (1,200 rpm) for 10 minutes with centrifuge brake applied. After centrifugation, the PBS was aspirated and the lymphocyte pellet was resuspended in 48 mL of PBS. Lymphocytes resuspended in PBS were centrifuged at 250 rcf (1,200 rpm) for 10 minutes with centrifuge break applied. PBS was aspirated and PBMC pellet resuspended in 12.5% Bovine Serum Albumin (BSA) (Sigma-Aldrich, St. Louis, Mo., Catalog No. A9418-5G or equivalent) in RPMI medium (Sigma-Aldrich, St. Louis, Mo., Catalog No. R7388 or equivalent). Stimulator lymphocytes (from C3H, C3B6 and DBA mouse spleens) were irradiated for 2.5 minutes (2,000 RAD) in a cesium irradiator.
# One-way MLRs were performed by mixing 1×10^5 lymphocytes from both stimulator and responder cells in a 96-well ELISPOT (eBioscience, San Diego, Calif., Catalog No. 88-7384, or equivalent) capture plate coated with anti-mouse IFN-γ antibody according to manufacturer's protocol. […]
# [5] = system: CFSE labeled splenic lymphocytes from C3B6 hosts; experiment: CFSE labeling with flow-based assessment of splenic lymphocyte division in one-way MLR; assay type: cell-based, mouse; settings: day 98 survivor mice
# Description: Carboxyfluorescein […] succinimidyl ester (CFSE) labeling (Molecular Probes, Carlsbad, Calif., Catalog No. C34554, or equivalent) with flow cytometry detection was employed to assess lymphocyte cell division in response to alloantigen recognition. Briefly, lymphocytes from responders and stimulators were harvested as described above. For this experiment, sources of stimulator cells included C3H, C3B6 and Balb/c mice. Next, lymphocytes from responders were incubated in CFSE prepared according to manufacturer's protocol at 37° C. for 10 minutes. The staining was quenched by the addition of 5 volumes of ice-cold culture media (12.5% Bovine Serum Albumin (BSA) in RPMI) to the lymphocytes. Lymphocytes were incubated on ice for 5 minutes before pelleting by centrifugation. After centrifugation, the lymphocytes were washed by resuspending and pelleting 3 times in fresh culture media. One-way MLRs were performed by mixing 1×10^5 lymphocytes from both stimulator and CFSE responder cells in a 96-well tissue culture plate (Corning Costar, Tewksbury, Mass., Catalog No. CLS3585 or equivalent). […] After 5 days of incubation, the cells were harvested and analyzed using a flow cytometer with 488 nm excitation and emission filters appropriate for fluorescein. […]
# [6] = system: C3B6 mice (GVHD model); experiment: GVHD-associated weight loss and diarrhea in C3B6 mice; assay type: in vivo, mouse
# Description: It is well known that weight loss occurs in patients with GVHD. Jacobsohn D A, et al., Bone Marrow […]. 29(3): 231-236 (2002). […] C3B6 mice were treated according to Example 1. […] Despite the similar initial weight losses of Fasudil® treated and untreated T cell recipients, the two groups had different rates of diarrhea. […] Diarrhea resolved by the fourth week among survivors in both groups.
# [7] = system: small intestinal crypts; experiment: small intestine tissue sections of 90 day survivor mice; assay type: in vivo, mouse; settings: FIG. 7
# Excerpt: (B) Limited inflammation within dashed lines of basal layer and lamina propria, with intact crypts, in 90 day survivor Fasudil® treated mice.
# [8] = system: SAH patients; settings: over 1400 SAH patients; cited from earlier work
# [9] = system: Tregs:autoreactive Th17 cells; settings: cited from earlier work
# [10] = system: plasma proteins, mainly albumin and orosomucoid; settings: cited from earlier work
# [11] = cited from earlier work
# [12] = 80 or 160 mg per day; cited from earlier work
# [13] = system: rat colitis; settings: chemically induced acute colitis, cited from earlier work
# [14] = system: lymphocyte chemotaxis; settings: in part SDF-1 induced chemotaxis; cited from earlier work
# [15] = system: corneal neovascularization; settings: corneal systems; cited from earlier work
# [16] = system: ROCK; settings: cited from earlier work
# [17] = system: patients with mild to moderate hypertension; settings: cited from earlier work
# [18] = cited from earlier work; remark: listed apart in the source
# [19] = biological target: CYP2C19 (Homo sapiens, UniProt P33261); settings: in vitro; cited from earlier work
# [20] = system: cytochrome P450 enzymes; settings: cited from earlier work
# [21] = system: patients treated with MICARDIS; settings: cited from earlier work
# CYP2C19, sequence (P33261 whole entry): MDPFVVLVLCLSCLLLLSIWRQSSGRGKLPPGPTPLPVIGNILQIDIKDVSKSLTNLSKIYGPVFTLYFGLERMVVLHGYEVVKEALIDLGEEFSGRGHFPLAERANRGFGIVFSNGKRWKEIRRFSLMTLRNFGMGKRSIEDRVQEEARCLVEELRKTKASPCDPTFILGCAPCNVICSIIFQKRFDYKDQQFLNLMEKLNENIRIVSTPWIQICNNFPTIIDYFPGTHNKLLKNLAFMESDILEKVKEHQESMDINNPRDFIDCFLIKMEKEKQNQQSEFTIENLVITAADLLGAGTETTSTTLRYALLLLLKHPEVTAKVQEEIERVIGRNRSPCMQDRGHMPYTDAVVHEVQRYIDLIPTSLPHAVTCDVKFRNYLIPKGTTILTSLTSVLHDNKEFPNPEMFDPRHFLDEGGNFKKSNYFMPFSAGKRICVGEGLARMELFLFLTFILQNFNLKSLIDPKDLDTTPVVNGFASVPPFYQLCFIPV
smiles,measurement,setting,value
"O=S(=O)(c1cccc2cnccc12)N1CCCNCC1 [Fasudil®, Fasudil]",blood vessel spasm and constriction after subarachnoid bleeding,[1],effective in reversing blood vessel spasm and constriction
same,"Survival Rate (95% CI), 90 day",[2],73%
same,"Survival Rate (95% CI), 90 day",[2]; listed as Fasudil ®,73% (55%-88%)
same,skin inflammation,[3],did not prevent skin inflammation
same,Day 10 IFN-γ secreting spleen cell frequencies,[4]; Concanavalin A positive control,"120.0 per 100,000 cells"
same,Day 10 IFN-γ secreting spleen cell frequencies,"[4]; irradiated stimulators C3B6F1 (host), 4 day one-way MLR","115.6 per 100,000 cells"
same,Day 10 IFN-γ secreting spleen cell frequencies,"[4]; irradiated stimulators C3H (self), 4 day one-way MLR","2.3 per 100,000 cells"
same,Day 10 IFN-γ secreting spleen cell frequencies,"[4]; irradiated stimulators DBA (third party), 4 day one-way MLR","18 per 100,000 cells"
same,spleen cell division in response to B6C3F1 stimulation,[5]; FIG. 6-E,strongly responded to B6C3F1 stimulation
same,spleen cell division in response to Balb/c stimulation,[5]; FIG. 6-F,comparable to their response to Balb/c
same,mice developing clinically observable diarrhea,[6]; between second and third weeks post-transplant,less than 20%
same,weight loss,"[6]; first three weeks post-transplant, roughly the same as ATBM+T cells mice",~25 % total body weight
same,subsequent weight recovery,"[6]; most experiments, data not shown",recovered more weight than ATBM+T cells recipient mice
same,small intestinal crypt inflammation,[7],minimal small intestinal crypt inflammation
same,tolerability and safety,[8],well tolerated and safe
"CCCc1nc2c(C)cc(-c3nc4ccccc4n3C)cc2n1Cc1ccc(-c2ccccc2C(=O)O)cc1 [Telmisartan, telmisartan]",ratio of protective Tregs:autoreactive Th17 cells,[9],increase the ratio
same,bound to plasma proteins,[10],> 99.5%
same,amount found in urine,[11]; intravenous administration,0.91 % of total radioactivity
same,administered dose eliminated unchanged in feces via biliary excretion,[11]; intravenous or oral 14C-labeled telmisartan,> 97%
same,amount found in urine,[11]; oral administration,0.49 % of total radioactivity
same,incidence of reported poor tolerability,[12],0.5%
same,effect on colitis,[13]; listed as telmisartan,anti-inflammatory effects
same,effect on colitis,[13],protective effect against rat colitis
same,lymphocyte chemotaxis,[14],abrogate lymphocyte chemotaxis
same,neovascularization,[15],prevent neovascularization
same,potency as ROCK inhibitor compared with Y-27632,[16],as potent an inhibitor of ROCK as Y-27632
same,DBP reduction from baseline after placebo subtraction,[17]; 20 mg once daily,~6 mm Hg
same,SBP reduction from baseline after placebo subtraction,[17]; 20 mg once daily,6-8 mm Hg
same,DBP reduction from baseline after placebo subtraction,[17]; 40 mg once daily,6-8 mm Hg
same,SBP reduction from baseline after placebo subtraction,[17]; 40 mg once daily,9-13 mm Hg
same,DBP reduction from baseline after placebo subtraction,[17]; 80 mg once daily,7-8 mm Hg
same,SBP reduction from baseline after placebo subtraction,[17]; 80 mg once daily,12-13 mm Hg
same,time to maximal blood pressure reduction,[17]; after initiation of treatment,~4 weeks
same,incidence of symptomatic orthostasis,"[17]; after the first dose, all controlled trials",0.04%
same,reduction in AUC by food,[18]; 40 mg tablet,about 6%
same,reduction in AUC by food,[18]; 160 mg dose,about 20%
same,terminal elimination half-life,[18]; in vivo,approximately 24 hours
same,volume of distribution,[18]; in vivo,approximately 500 liters
same,inhibition of CYP2C19,[19],some inhibition
same,metabolism by the cytochrome P450 system,[20],not metabolized
same,effects in vitro on cytochrome P450 enzymes,[20]; except CYP2C19,no effects
same,incidence of cough,"[21]; 6 placebo-controlled trials, identical to placebo",1.6%
same,incidence of back pain,[21]; n = 1455,3%
same,incidence of diarrhea,[21]; n = 1455,3%
same,incidence of pharyngitis,[21]; n = 1455,1%
same,incidence of sinusitis,[21]; n = 1455,3%
same,incidence of upper respiratory tract infection,[21]; n = 1455,7%
same,discontinuation of therapy because of adverse events,"[21]; of 1455 patients, placebo-controlled clinical trials",2.8%
